The NIST ThermoML archive (doi:10.1016/j.jct.2006.07.018)

Test: mn = molality of the nth substance listed, in mol/kg
Details: 350 kPa, Liquid, Vibrating tube method

CSCC[C@H](N)C(=O)O [L-methionine] + O
mass density [kg/m3]
Details | m1 = 0.0125 | m1 = 0.025 | m1 = 0.05 | m1 = 0.0997 | m1 = 0.1501 | m1 = 0.1929
278.15 K | 1000.87 | 1001.33 | 1002.43 | 1005.13 | 1007.08 | 1008.66
283.15 K | 1000.6 | 1001.06 | 1002.07 | 1004.77 | 1006.7 | 1008.25
288.15 K | 999.97 | 1000.44 | 1001.43 | 1004.07 | 1005.97 | 1007.5
298.15 K | 997.89 | 998.35 | 999.32 | 1001.89 | 1003.72 | 1005.21
308.15 K | 994.85 | 995.32 | 996.3 | 998.76 | 1000.54 | 1002.01
318.15 K | 991.01 | 991.47 | 992.35 | 994.85 | 996.62 | 998.08
328.15 K | 986.48 | 986.94 | 987.79 | 990.26 | 992 | 993.45
338.15 K | 981.32 | 981.79 | 982.66 | 985.05 | 986.79 | 988.23
348.15 K | 975.6 | 976.09 | 976.97 | 979.29 | 981.03 | 982.49
358.15 K | 969.38 | 969.84 | 970.77 | 973.02 | 974.79 | 976.26
368.15 K | 962.63 | 963.11 | 964.09 | 966.29 | 968.05 | 969.51
